The values that follow come from patent publication US6392049B1, “Process for preparing 2,4-dihydroxypyridine and 2,4-dihydroxy-3-nitropyridine” (Aventis Pharmaceuticals Inc., priority 1996, dated 2002).

The test system of data set [1] is spontaneously hypertensive rat (SHR). Nature of the data set: Oral antihypertensive activity in conscious spontaneously hypertensive rat (SHR). Format: in vivo. Conditions: D signifies decrease, I signifies increase. The method, then:
The oral antihypertensive activity of compounds of Formula I are examined in conscious spontaneously hypertensive rats. The rats are anesthetized with sodium phenobarbitol (50 mg/kg i.p.). A telemetry transducer is implanted into the rats abdomen via midline incision. The cannula of the transducer is inserted into the abdominal aorta to allow direct measurement of arterial pressure in the conscious SHR. The transducer is secured to the abdominal wall. After recovery from surgery (minimum of seven days), the SHR are placed on a receiver plate and the transducer/transmitter is activated. Systolic, diastolic and mean arterial pressure and heart rate are recorded for 1.5 hours in the unrestrained conscious rat to establish a stable baseline. Each rat then received a single dose of the compound of Formula I to be tested, or vehicle, and changes in arterial pressure and heart rate are monitored for 20 hours and recorded.

Data set [2] relates to normotensive anesthetized rat. Nature of the data set: Mean arterial blood pressure and heart rate in normotensive anesthetized rat. Conditions: for Anesthetized Rat HR/ED25: intravenous dose lowering heart rate by 25%; for Anesthetized Rat MAP/ED25: intravenous dose lowering mean arterial pressure by 25%. The format is in vivo. The method, then:
Normotensive rats are anesthetized with sodium pentobarbital (50 mg/kg, i.p.) and placed on a heated surgical table. Cannulas are inserted into the femoral artery and veined to allow the measurement of arterial pressure and to facilitate the intravenous administration of test compounds. The animals are allowed to equilibrate for 10 minutes after surgery. Mean arterial pressure is continuously measured and recorded and heart rate is monitored using the arterial pressure pulse to trigger a cardiotachometer. After baseline parameters are established and recorded, increasing doses (1, 3, 10, 30, 100, 300 and 1000 μg/kg) of the compound of Formula I to be tested are administered intravenously. Maximal changes in the cardiovascular parameters are observed after each dose of the adenosine agonist. Only one compound is administered per rat.

A further data set concerns swine coronary arteries. In words: In vitro vasorelaxation in isolated swine coronary arteries. Format: cell-based. Conditions: for IC50: read-out: Vasorelaxation in Swine Coronary Artery/IC50 (μM). The protocol:
Swine coronary arteries are obtained from a local slaughter house, dissected carefully and cleaned of fat, blood and adhering tissue. Rings approximately 2-3 mm wide are cut and transferred to water-jacketed tissue baths (10 mL) filled with warm (37° C.), oxygenated (O2/CO2:95%/5%) Krebs-Henseleit buffer and mounted on L-shaped hooks between stainless steel rods and a force transducer. […] PGF2a, before being exposed to 3 μM PGF2a.

In data set [3] the target is T1, A2 receptor (Rattus norvegicus, UniProt P30543).
T1 construct: using membranes from rat brain striatum; from tissue; host or cells: rat brain striatum membranes
Nature of the data set: A2 adenosine receptor binding, displacement of 3H-CGS 21680, rat brain striatum membranes. Conditions: for IC50: 3H-CGS 21680 displacement, rat brain striatum membranes, 25° C., 90 minutes, read-out: Adenosine Receptor Binding Activity/IC50 (nM) A2. The method, then:
Non-specific binding is assessed in the presence of 20 μm 2-chloroadenosine.
(§1) The assays are run in glass test tubes in duplicate at 25° C. Once the membranes are added, the tubes are vortexed and incubated at 25° C. for 60 minutes (A1 assay) or 90 minutes (A2 assay) on a rotary shaker. The assay tubes are vortexed halfway through the incubation and again near the end. The assays are terminated by rapid filtration through 2.4 cm GF/B filters using a Brandel Cell Harvestor. The test tubes are washed three times with cold 50 mM tris-HCl (pH 7.7 or 7.4), with filtration being completed within 15 seconds. The damp filter circles are placed in glass scintillation vials filled with 10 ml of Aquasol II (New England Nuclear). The vials are allowed to shake overnight on a rotary shaker and are placed into a liquid scintillation analyzer for two minute counts. IC50 values for receptor binding, i.e. the concentration at which a compound of Formula I displaced the radiolabeled standard, are obtained using a curve-fitting computer program (RS/1, Bolt, Beranek and Newman, Boston, Mass.).
(In general: Loss of bound radioactivity is the signal in a displacement assay; it reports binding, not function.)

The next data set deals with T2, A1 receptor (Rattus norvegicus, UniProt P25099).
T2 construct: using a membrane preparation of whole rat brain; from tissue; host or cells: whole rat brain membranes
T2 sequence (P25099 1-326): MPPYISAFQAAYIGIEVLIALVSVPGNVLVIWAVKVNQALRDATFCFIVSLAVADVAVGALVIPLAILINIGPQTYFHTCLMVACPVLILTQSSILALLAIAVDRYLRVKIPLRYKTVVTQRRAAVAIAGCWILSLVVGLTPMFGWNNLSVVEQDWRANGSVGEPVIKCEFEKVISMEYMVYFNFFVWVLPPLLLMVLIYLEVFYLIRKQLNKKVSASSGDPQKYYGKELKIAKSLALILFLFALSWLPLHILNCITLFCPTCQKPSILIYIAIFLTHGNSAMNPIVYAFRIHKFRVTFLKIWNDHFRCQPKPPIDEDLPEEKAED
In words: A1 adenosine receptor binding, displacement of 3H-CHA, whole rat brain membranes. Conditions: 3H-CHA displacement, 25° C., 60 minutes. The protocol: Non-specific binding is assessed in the presence of 1 mM theophylline.
as §1

In another data set the test system is rat adipocytes. In words: Antilipolytic activity in rat adipocytes (in vitro lipolysis assay, glycerol production). The format is cell-based. The note with it: for pEC50: read-out: EC50 (50% inhibition of glycerol production). The protocol:
Adipose tissue is removed from anesthetized rats and rinsed twice in incubation medium (2.09 g sodium bicarbonate and 0.04 g EDTA, disodium salt, in 1 L Krebs buffer). Each rat (300-350g) yields approximately 4 ml of adipose tissue. The adipose tissue (35 mL) is cut into small pieces with scissors and washed with incubation medium (50 mL). The mixture is poured into the barrel of a 50 mL syringe to which is attached a short piece of clamped tubing instead of a needle. The aqueous phase is allowed to drain. A second wash with incubation medium is passed through the syringe. The tissue is added to 50 mL of collagenase solution (collagenase (90 mg), bovine serum albumin (BSA) (500 mg), and 0.1 M calcium chloride solution (1 mL), in incubation medium (50 mL)) in a 1 L bottle. The mixture is shaken in an environmental at 37 ° C. for about 60 minutes under an atmosphere of 95% oxygen/5% carbon dioxide to effect digestion of the tissue. The dispersed cells are poured through 2 layers of cheese cloth into a 100 mL plastic beaker. The undigested clumps in the cloth are rinsed once with incubation medium (20 mL). The cells in the beaker are centrifuged in 2 plastic tubes for 30 seconds at room temperature at 300 rpm. The aqueous phase is aspirated from beneath the loosely packed layer of floating fat cells and discarded. The adipocytes are gently poured into a 250 mL plastic beaker containing 100 mL of rinse solution (1 g BSA per 100 mL incubation medium). After gentle stirring the centrifugation step is repeated. Another wash with rinse solution follows. The cells are pooled and their volume is estimated with a graduated cylinder. The adipocytes are diluted in twice their volume of assay buffer (incubation medium (120 mL), BSA (1.2 g), pyruvic acid (13 mg)).
The assay is performed in 20 mL plastic scintillation vials and the total assay volume is 4.2 ml. Assay buffer (2.5 mL), diluted adipocytes (1.5 mL), and a solution of the compound to be tested (12.3 μL) adenosine agonist (12.3 μL; varying concentration) is incubated in the environmental shaker for 15 minutes, then the reaction is started with norepinephrine solution (41.2 μL) (10 nM, in a carrier solution containing water (100 mL), BSA (4 mg), and 0.1 M EDTA (20 μL))and adenosine deaminase (1 μg/ml, 41.2 μL). After sixty minutes in the shaker the reaction is terminated by putting the vials on ice. […] The hard lipid layer is removed by aspiration and the aqueous layer is assayed for glycerol (400 μL of sample). The positive control is done in the absence of any adenosine agonist, substituting water in place of the solution to be tested.

The subject of another data set is A1 and A2 receptors. Conditions: selectivity, background section; cited from earlier work.
Data set [4] relates to A2 receptor. Conditions: background section; cited from earlier work.
[5] abbreviates: 50% reduction in tension of rings contracted with 3 μM PGF2a, read-out: Vasorelaxation in Swine Coronary Artery/IC50.
[6] abbreviates: Adipocyte, rat adipocytes, norepinephrine-stimulated.
Where [7] appears, read: rat adipocytes, norepinephrine-stimulated.

pEC50, pIC50: −log10 of the molar value. Where two headings read alike, the source gives them in different places.

T1 sequence (P30543 whole entry): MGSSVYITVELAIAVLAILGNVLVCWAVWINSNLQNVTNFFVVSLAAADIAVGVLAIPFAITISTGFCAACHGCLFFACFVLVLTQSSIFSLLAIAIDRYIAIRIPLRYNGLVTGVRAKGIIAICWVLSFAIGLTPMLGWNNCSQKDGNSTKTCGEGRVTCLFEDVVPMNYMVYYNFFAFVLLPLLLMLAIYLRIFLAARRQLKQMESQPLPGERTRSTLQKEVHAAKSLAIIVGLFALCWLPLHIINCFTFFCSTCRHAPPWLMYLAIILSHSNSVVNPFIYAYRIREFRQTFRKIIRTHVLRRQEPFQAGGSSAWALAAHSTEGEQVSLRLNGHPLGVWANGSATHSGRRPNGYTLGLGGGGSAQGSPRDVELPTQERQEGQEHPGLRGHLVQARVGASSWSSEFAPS

Turning to `CCNC(=O)C1CC(n2cnc3c(NCCNc4nc5ccccc5s4)ncnc32)C(O)C1O` (racemic) [Example 29, (±)-N^6-[2-(2′-aminobenzothia-zoly)ethyl]carbocyclic adenosine-5′-N-ethyl carboxamide], in [1] (single oral dose 5 mg/kg), the “SHR HR/%” value is 12 (D) % and the “SHR MAP/%” value is reported as 18 (D) %. Also, in data set [2], the “Anesthetized Rat HR/ED25” value stood at 0.031 mg/kg and the “Anesthetized Rat MAP/ED25” value came out at 0.016 mg/kg. Moreover, the pIC50 in the data set with swine coronary arteries (setting [5]) was 4.66.

On to `OC[C@H]1O[C@@H](n2cnc3c(N[C@@H]4CC=CC[C@H]4c4cccs4)ncnc32)[C@H](O)[C@@H]1O` (relative stereo) [Example 4, N6-[trans-2-(thiophen-2-yl)cyclohex-4-en-yl]adenosine], for which the melting point (commonly the temperature of the solid-liquid transition) lay in the range of 105 to 110 °C. The IC50 on A2 receptor [3] worked out at 55 nM. Moreover, in data set [1] (single oral dose 5 mg/kg), the “SHR HR/%” value is 20 (D) % and the “SHR MAP/%” value is reported as 28 (D) %. Also, the IC50 on A1 receptor is 1.66 nM. In addition, in data set [2], the “Anesthetized Rat HR/ED25” value was found to be 0.019 mg/kg and the “Anesthetized Rat MAP/ED25” value was 0.013 mg/kg. Besides, the IC50 in the data set on swine coronary arteries (Sus scrofa) worked out at 0.73 µM.

Regarding `CO[C@@H]1[C@H](O)[C@@H](CO)O[C@H]1n1cnc2c(N[C@@H]3CC=CC[C@H]3c3cccs3)ncnc21` (relative stereo) [Example 49, N^6-[trans-5-(2-thienyl)cyclohex-1-en-4-yl]-2′-O-methyladenosine], the IC50 on A2 receptor [3] turned out to be 2880 nM; on A1 receptor it was 69 nM; in the data set with swine coronary arteries (Sus scrofa), 9.81 µM. The negative logarithm of the EC50 (pEC50) (in general, the EC50 on a negative log10 scale, so that one unit is a factor of ten) in the data set with rat adipocytes (setting [6]) is 7.73.

Turning to `CCNC(=O)C1CC(n2cnc3c(N[C@H](C)Cc4ccc(Cl)s4)ncnc32)C(O)C1O` (single isomer, unassigned; (-)) [Example 6], at A2 receptor [3], the IC50 is 12.9 nM. In [1] (single oral dose 1 mg/kg), the “SHR HR/%” value was 7 (I) % and the “SHR MAP/%” value is listed as 18 (D) %. Besides, the IC50 on A1 receptor is 2.69 nM. For the same compound, the pEC50 in the data set with rat adipocytes (setting [7]) is 9.12. Besides, the pIC50 with swine coronary arteries (setting [5]) is 7.68.

For `CCNC(=O)C1CC(n2cnc3c(NCCc4cccs4)ncnc32)C(O)C1O` (single isomer, unassigned; (-)) [Example 26, (−)-N^6-[(thiophen-2″-yl)ethan-2-yl]carbocyclic adenosine-5′-N-ethyl carboxamide], the IC50 at A2 receptor [3] is 63.1 nM. Further, in [1] (single oral dose 2.5 mg/kg), the “SHR HR/%” value was 3 (I) % and the “SHR MAP/%” value is listed as 41 (D) %. The same compound came in with an IC50 at A1 receptor of 87.1 nM. The “% Inhibition of glycerol production, 1 μM” value in the data set with rat adipocytes (1 μM compound versus positive control, rat adipocytes, norepinephrine-stimulated) was 96%. Moreover, the negative logarithm of the EC50 (pEC50) with rat adipocytes (setting [7]) was 7.05. In data set [2], the “Anesthetized Rat HR/ED25” value is >0.03 mg/kg and the “Anesthetized Rat MAP/ED25” value was found to be 0.004 mg/kg. Besides, in the data set on swine coronary arteries (setting [5]), the pIC50 was 7.09.

With `OC[C@H]1O[C@@H](n2cnc3c(NC4CCCC4)ncnc32)[C@H](O)[C@@H]1O` [CPA, N-cyclopentyladenosine], the pIC50 on A2 receptor [3] was 5.80; with swine coronary arteries (Sus scrofa, read-out: Vasorelaxation (IC50)), 5.50. The inhibition (as a rule, how much of the control response was suppressed) at 0.1 µM with rat adipocytes (Rattus norvegicus, Adipocyte, read-out: % Inhibition of glycerol production, 0.1 μM) was 97%. In the data set with rat adipocytes (Rattus norvegicus, Adipocyte, read-out: % Inhibition of glycerol production, 1 μM), the inhibition at 1 µM was determined as 100%. For the same compound, in the data set with rat adipocytes (Rattus norvegicus, Adipocyte), the pEC50 was 9.51.

`Nc1nc(Nc2ccccc2)nc2c1ncn2[C@@H]1O[C@H](CO)[C@@H](O)[C@H]1O` [CV-1808]: in the data set with A1 and A2 receptors, the A2/A1 ratio was 0.19. The “fold less potent than NECA in affinity for the A2 receptor” value in the data set on A2 receptor [4] was 10 fold.

`CCNC(=O)[C@H]1C[C@@H](n2cnc3c(NC(Cc4cccs4)C(C)C)ccnc32)[C@H](O)[C@@H]1O` (stereo partly drawn) [Example 38, [1S-[1a,2b,3b,4a]]-4-[7-[[2-(2-thienyl)-1-isopropylethyl]amino]-3H-imidazo[4,5-b]pyridin-3-yl]-N-ethyl-2,3-dihydroxycyclopentanecarboxamide] showed a melting point of 75 to 85 °C. Moreover, at A2 receptor [3], the IC50 stood at 55.5 nM. On A1 receptor, this compound showed an IC50 of 5.7 nM. Moreover, the IC50 with swine coronary arteries (Sus scrofa) turned out to be 0.47 µM.

Compound `CCNC(=O)[C@H]1C[C@@H](n2cnc3c(N[C@H](C)Cc4cccs4)ccnc32)[C@H](O)[C@@H]1O` [Example 40, [1S-[1a,2b,3b,4a(S*)]]-4-[7-[[2-(2-thienyl)-1-methylethyl]amino]-3H-imidazo[4,5-b]pyridin-3-yl]-N-ethyl-2,3-dihydroxycyclopentane-carboxamide] gave a melting point of 155 to 160 °C. The IC50 at A2 receptor [3] was determined as 68.8 nM. The compound also registered an IC50 at A1 receptor of 9.3 nM. The IC50 in the data set on swine coronary arteries (Sus scrofa) came to 283 µM.

With `CCNC(=O)[C@H]1C[C@@H](n2cnc3c(N[C@H](C)Cc4ccc(Cl)s4)ncnc32)[C@@H]2OC(=S)O[C@@H]21` [Example 46, (2S)-2a,3a-dihydroxy-4β-[N6-[2-(5-chloro-2-thienyl)-(1R)-1-methylethyl]amino-9-adenyl]cyclopentane-1β-N-ethylcarboxamide-2,3-thiocarbonate], the IC50 turned out to be 81 nM at A2 receptor [3], 13.5 nM on A1 receptor and 3.52 µM in the data set on swine coronary arteries (Sus scrofa). Besides, the negative-log EC50 (pEC50) in the data set on rat adipocytes (setting [6]) is 8.40.
